Reference: patent US10398751B2, “Pharmaceutical compositions of water soluble peptides with poor solubility in isotonic conditions and methods for their use” (STRONGBRIDGE IRELAND LIMITED, priority 2016, dated 2019)
Like-named read-outs stand apart in the source and are kept apart here.

Experiments:
[1] = Comparative surface tension of peptides in water for injection; format: physicochemical; conditions: 10 mg/ml in WFI; for Effect of reduced surface tension (%): baseline WFI; for Water surface tension (dyne/cm): baseline WFI 52
[2] = Emulsification of cottonseed oil and water for injection; format: physicochemical; conditions: 16.6 weight % cottonseed oil, 74.2 weight % WFI, 9.2 weight % peptide, room temperature
Method: Based on its amphiphilic properties, veldoreotide acetate was evaluated by means of emulsion formulation. […] Thus, veldoreotide acetate may be considered a w/o ionic surfactant or hydrotrope with a hydrophilic lipophilic balance (HLB) of 6.
The samples were mixed using 25G syringe and vortexed at room temperature.
Veldoreotide was formulated as a water in oil emulsion using 80% (wt %) cottonseed oil, 20% (wt %) water for injection (WFI) and 1% (wt %) veldoreotide acetate. Specifically, 10 mg of veldoreotide acetate was dissolved in 200 uL WFI in a 5 mL glass vial, 800 mg of cottonseed oil was added and the resulting mixture was stirred under magnetic stirring at room temperature for 15 minutes at 1000 rpm. The emulsion was then viewed under the light microscope and stored under refrigeration. The resulting emulsion was stable and found to be injectable via 27G needle.

[3] = cited from earlier work
[4] = Density, pH and surface tension of solutions (capillary method); format: physicochemical
Method: Tween 80 was used as a control surfactant for comparison. Densities were measured on 1 mL fixed volume samples. […] The effect of veldoreotide acetate on the pH of double distilled water (DDW) was the same at all veldoreotide acetate concentrations. The pH of DDW of 5.0 was reduced to pH 4.5. The effect of veldoreotide acetate on the density of DDW (starting density of DDW was 1.003 g/ml) was concentration dependent from 1.4 mg/ml to 21.5 mg/ml with density ranging from 0.986 to 0.998 g/ml respectively. However, at veldoreotide acetate concentrations of 45 and 102 mg/ml the density was increased above the starting density of DDW. […] The effect of veldoreotide acetate on the surface tension of DDW (starting surface tension was 64.9 dyne/cm) was consistent with veldoreotide acetate behaving as a peptide amphiphile (surfactant). The surface tension of DDW was reduced by veldoreotide acetate at maximum from 64.9 to 45 dyne/cm. In order to elucidate the meaning of this effect, Tween 80 was used as a reference surfactant. Other surfactants include Polexamer 188. The reduction of surface tension induced by Tween 80 was in the range of 40% (from 64.9 dyne/cm to about 39 dyne/cm), in comparison to veldoreotide acetate of 30% (from 64.9 dyne/cm to about 45 dyne/cm). Note that, under these experimental conditions; the effect of Tween 80 indicated a concentration-effect relationship. Whereas, the effect of veldoreotide acetate on the reduction of surface tension was at the same range for all concentrations tested.
The data of table 4 show the surface activity of highly concentrated COR005 acetate (200 mg/ml), with or without additives in WFI, which emulates the preparation conditions of the primary emulsion of the microspheres. The results of Test 1 and 2 (Table 4) show the effect of COR005 acetate on the surface tension of water. When COR005 acetate is dissolved in water the surface tension is reduced by about 36%, from 68.5 dyne/cm for the water alone to 44 dyne/cm for the solution of water with CR005 acetate at 200 mg/ml.

Compound | Effect of reduced surface tension (%) [1] | Water surface tension (dyne/cm) [1] | emulsification [2] | surface area ([3]; microspheres prepared from PLGA and octreotide acetate with 0 glucose (Biomaterials, 2004, 25, 1919-1927)) | surface area ([3]; microspheres prepared from PLGA and octreotide acetate with 0.2% of glucose (Biomaterials, 2004)) | surface area ([3]; microspheres prepared from PLGA and octreotide acetate with 1% of glucose (Biomaterials, 2004)) | % change in surface tension compared to baseline ([4]; 7 mg/ml in DDW, 25° C.) | Density (g/ml) Weighted 1 ml ([4]; 7 mg/ml in DDW, 25° C.) | Surface tension (dyne/cm) capillary method ([4]; 7 mg/ml in DDW, 25° C.) | % change in surface tension compared to baseline ([4]; 14 mg/ml in DDW, 25° C.) | Density (g/ml) Weighted 1 ml ([4]; 14 mg/ml in DDW, 25° C.) | Surface tension (dyne/cm) capillary method ([4]; 14 mg/ml in DDW, 25° C.) | % change in surface tension compared to baseline ([4]; 28 mg/ml in DDW, 25° C.) | Density (g/ml) Weighted 1 ml ([4]; 28 mg/ml in DDW, 25° C.) | Surface tension (dyne/cm) capillary method ([4]; 28 mg/ml in DDW, 25° C.) | surface tension of DDW solution ([4]; DDW pH 5.0, 25° C., baseline 64.9 dyne/cm (text summary, concentration not specified)) | reduction of surface tension of water ([4]; DDW, 25° C., baseline 64.9 dyne/cm)
CC(C)C[C@H](NC(=O)[C@@H](COC(C)(C)C)NC(=O)[C@H](Cc1ccc(O)cc1)NC(=O)[C@H](CO)NC(=O)[C@H](Cc1c[nH]c2ccccc12)NC(=O)[C@H](Cc1cnc[nH]1)NC(=O)[C@@H]1CCC(=O)N1)C(=O)N[C@@H](CCCNC(=N)N)C(=O)N1CCC[C@H]1C(=O)NNC(N)=O [Goserelin] | −37% | 33 dyne/cm | least potential for emulsion formation | – | – | – | – | – | – | – | – | – | – | – | – | – | –
C[C@@H](O)[C@@H]1NC(=O)[C@H](CCCCN)NC(=O)[C@@H](Cc2c[nH]c3ccccc23)NC(=O)[C@H](Cc2ccccc2)NC(=O)[C@@H](NC(=O)[C@H](N)Cc2ccccc2)CSSC[C@@H](C(=O)N[C@H](CO)[C@@H](C)O)NC1=O [Octreotide] | −27% | 38 dyne/cm | weak emulsification efficiency | 4.4 m^2/g | 4.7 m^2/g | 4.9 m^2/g | – | – | – | – | – | – | – | – | – | – | –
CCCCCCCC/C=C\CCCCCCCC(=O)OCCOCC(OCCO)C1OCC(OCCO)C1OCCO (centres unmarked) [Tween 80, reference compound] | – | – | – | – | – | – | −39% | 0.9945 g/mL | 39.6 dyne/cm | −39% | 0.988 g/mL | 39.35 dyne/cm | −40% | 0.975 g/mL | 38.8 dyne/cm | about 39 dyne/cm | ~40%
